Target mRNA inhibition data for 29 substances are collected here from the OligoGym collection.

The target of this data set is HBV. Conditions: ASO.

“And” between values parts separate entries of the source, which are not always exact repeats. Equal entries are not always repeated. HELM strings list units from the 5' end as sugar, base in round brackets, then linkage (d deoxyribose, r ribose, m 2'-O-methyl, p phosphodiester). Methylation of C is not given here. [moe] = 2'-O-(2-methoxyethyl) (MOE); [cEt] = constrained ethyl (cEt); [sp] = phosphorothioate linkage

Turning to “RNA1{[moe](C)[sp].[moe](A)[sp].[moe](A)[sp].d(T)[sp].d(T)[sp].d(T)[sp].d(A)[sp].d(T)[sp].d(G)[sp].d(C)[sp].d(C)[sp].d(T)[sp].[moe](A)[sp].[moe](C)[sp].[moe](A)[sp].[moe](G)}$$$$V2.0”, the target mRNA inhibition (HepG2, 0.07 µM) was 17% and 22%.

Turning to “RNA1{[moe](A)[sp].[moe](C)[sp].[moe](G)[sp].[moe](T)[sp].d(G)[sp].d(C)[sp].d(A)[sp].d(G)[sp].d(A)[sp].d(G)[sp].d(G)[sp].d(T)[sp].d(G)[sp].[moe](A)[sp].[moe](A)[sp].[moe](G)}$$$$V2.0”, for the setting “HepG2, 0.07 µM”, the target mRNA inhibition was 53% and 45%.

On to “RNA1{[moe](T)[sp].[cEt](T)[sp].[cEt](A)[sp].d(T)[sp].d(G)[sp].d(C)[sp].d(C)[sp].d(T)[sp].d(A)[sp].d(C)[sp].d(A)[sp].d(G)[sp].d(C)[sp].[cEt](C)[sp].[cEt](T)[sp].[moe](C)}$$$$V2.0”, for which the target mRNA inhibition (HepG2, 0.07 µM) was 48% and 23%.

In the case of “RNA1{[moe](C)[sp].[moe](G)[sp].d(T)[sp].d(G)[sp].d(C)[sp].d(A)[sp].d(G)[sp].d(A)[sp].d(G)[sp].d(G)[sp].d(T)[sp].[moe](G)[sp].[moe](A)[sp].[moe](A)[sp].[moe](G)[sp].[moe](C)}$$$$V2.0”, the target mRNA inhibition (HepG2, 0.07 µM) was 51% and 60%.

Turning to “RNA1{[moe](C)[sp].[moe](G)[sp].[moe](G)[sp].[moe](G)[sp].[moe](C)[sp].d(A)[sp].d(A)[sp].d(C)[sp].d(A)[sp].d(T)[sp].d(A)[sp].d(C)[sp].d(C)[sp].d(T)[sp].[moe](T)[sp].[moe](G)}$$$$V2.0”, where the note is “HepG2, 0.07 µM”, the target mRNA inhibition was 54% and 53%.

“RNA1{[moe](C)[sp].[moe](G)[sp].[moe](A)[sp].d(A)[sp].d(C)[sp].d(C)[sp].d(A)[sp].d(C)[sp].d(T)[sp].d(G)[sp].d(A)[sp].d(A)[sp].[moe](C)[sp].[moe](A)[sp].[moe](A)[sp].[moe](A)[sp].[moe](T)}$$$$V2.0”: the target mRNA inhibition (HepG2, 0.07 µM) is 60% and 50%.

Take “RNA1{[moe](A)[sp].[moe](T)[sp].[moe](T)[sp].d(T)[sp].d(A)[sp].d(T)[sp].d(G)[sp].d(C)[sp].d(C)[sp].d(T)[sp].d(A)[sp].d(C)[sp].d(A)[sp].[cEt](G)[sp].[cEt](C)[sp].[cEt](C)}$$$$V2.0”: under “HepG2, 0.07 µM”, the target mRNA inhibition was 47% and 65%.

Consider “RNA1{[moe](G)[sp].[moe](A)[sp].d(G)[sp].d(A)[sp].d(A)[sp].d(G)[sp].d(T)[sp].d(C)[sp].d(C)[sp].d(A)[sp].d(C)[sp].[moe](C)[sp].[moe](A)[sp].[moe](C)[sp].[moe](G)[sp].[moe](A)[sp].[moe](G)}$$$$V2.0”, for which the target mRNA inhibition (HepG2, 0.07 µM) is 35% and 21%.

In the case of “RNA1{[moe](C)[sp].[moe](C)[sp].[moe](G)[sp].[moe](C)[sp].[moe](A)[sp].[moe](G)[sp].d(T)[sp].d(A)[sp].d(T)[sp].d(G)[sp].d(G)[sp].d(A)[sp].d(T)[sp].d(C)[sp].d(G)[sp].[moe](G)[sp].[moe](C)}$$$$V2.0”, the target mRNA inhibition (HepG2, 0.07 µM) was 90% and 66%.

As to “RNA1{[moe](A)[sp].[moe](A)[sp].[moe](G)[sp].[moe](C)[sp].d(G)[sp].d(A)[sp].d(A)[sp].d(G)[sp].d(T)[sp].d(G)[sp].d(C)[sp].d(A)[sp].d(C)[sp].[moe](A)[sp].[moe](C)[sp].[moe](G)}$$$$V2.0”, where the note is “HepG2, 0.07 µM”, the target mRNA inhibition was 68% and 62%.

As for “RNA1{[moe](A)[sp].[moe](A)[sp].[moe](T)[sp].[moe](T)[sp].[moe](T)[sp].d(A)[sp].d(T)[sp].d(G)[sp].d(C)[sp].d(C)[sp].d(T)[sp].d(A)[sp].d(C)[sp].d(A)[sp].[moe](G)[sp].[moe](C)}$$$$V2.0”, under “HepG2, 0.07 µM”, the target mRNA inhibition was 39% and 23%.

As for “RNA1{[cEt](A)[sp].d(G)[sp].[cEt](G)[sp].d(T)[sp].[cEt](G)[sp].d(A)[sp].d(A)[sp].d(G)[sp].d(C)[sp].d(G)[sp].d(A)[sp].d(A)[sp].d(G)[sp].d(T)[sp].[moe](G)[sp].[moe](C)}$$$$V2.0”, the target mRNA inhibition is 14% (HepG2, 0.009375 µM); 21% (HepG2, 0.01875 µM); 42% (HepG2, 0.0375 µM); 61% (HepG2, 0.075 µM); 80% (HepG2, 0.15 µM); 92% (HepG2, 0.3 µM).

For the substance “RNA1{[moe](T)[sp].[moe](G)[sp].[moe](C)[sp].[moe](A)[sp].[moe](G)[sp].[moe](A)[sp].d(G)[sp].d(G)[sp].d(T)[sp].d(G)[sp].d(A)[sp].d(A)[sp].d(G)[sp].d(C)[sp].d(G)[sp].[moe](A)[sp].[moe](A)}$$$$V2.0”, the target mRNA inhibition (HepG2, 0.07 µM) was 74% and 63%.

Regarding “RNA1{[moe](T)[sp].[moe](T)[sp].[moe](A)[sp].[moe](T)[sp].[moe](G)[sp].d(C)[sp].d(C)[sp].d(T)[sp].d(A)[sp].d(C)[sp].d(A)[sp].d(G)[sp].d(C)[sp].d(C)[sp].[moe](T)[sp].[moe](C)}$$$$V2.0”, the target mRNA inhibition (HepG2, 0.07 µM) is 53% and 42%.

On to “RNA1{[moe](T)[sp].[moe](G)[sp].[moe](A)[sp].[moe](A)[sp].[moe](G)[sp].d(C)[sp].d(G)[sp].d(A)[sp].d(A)[sp].d(G)[sp].d(T)[sp].d(G)[sp].d(C)[sp].d(A)[sp].[moe](C)[sp].[moe](A)[sp].[moe](C)}$$$$V2.0”, for which, under “HepG2, 0.07 µM”, the target mRNA inhibition was 13% and 38%.

On to “RNA1{[moe](A)[sp].[cEt](G)[sp].d(A)[sp].d(A)[sp].d(G)[sp].d(T)[sp].d(C)[sp].d(C)[sp].d(A)[sp].d(C)[sp].d(C)[sp].d(A)[sp].[cEt](C)[sp].[moe](G)[sp].[cEt](A)[sp].[moe](G)}$$$$V2.0”, for which the target mRNA inhibition (HepG2, 0.07 µM) was 55% and 37%.

Regarding “RNA1{[moe](A)[sp].[moe](G)[sp].[moe](A)[sp].[moe](T)[sp].[moe](G)[sp].d(A)[sp].d(G)[sp].d(G)[sp].d(C)[sp].d(A)[sp].d(T)[sp].d(A)[sp].d(G)[sp].d(C)[sp].[moe](A)[sp].[moe](G)}$$$$V2.0”, for the setting “HepG2, 0.07 µM”, the target mRNA inhibition is 41% and 31%.

Turning to “RNA1{[moe](T)[sp].[moe](T)[sp].[moe](C)[sp].d(C)[sp].d(G)[sp].d(C)[sp].d(A)[sp].d(G)[sp].d(T)[sp].d(A)[sp].d(T)[sp].d(G)[sp].[moe](G)[sp].[moe](A)[sp].[moe](T)[sp].[moe](C)}$$$$V2.0”, the target mRNA inhibition (HepG2, 0.07 µM) was 53% and 50%.

For the substance “RNA1{[moe](G)[sp].[moe](G)[sp].[moe](C)[sp].d(A)[sp].d(T)[sp].d(A)[sp].d(G)[sp].d(C)[sp].d(A)[sp].d(G)[sp].d(C)[sp].d(A)[sp].d(G)[sp].[moe](G)[sp].[moe](A)[sp].[moe](T)[sp].[moe](G)}$$$$V2.0”, the target mRNA inhibition was 11% (HepG2, 0.0092593 µM); 42% (HepG2, 0.009375 µM); 30% (HepG2, 0.01875 µM); 28% (HepG2, 0.0277778 µM); 43% (HepG2, 0.0375 µM); 61% (HepG2, 0.075 µM). Moreover, the target mRNA inhibition runs as follows: (HepG2, 0.0833333 µM) 60%; (HepG2, 0.15 µM) 77%; (HepG2, 0.25 µM) 77%; (HepG2, 0.3 µM) 91%.

On to “RNA1{[moe](G)[sp].[moe](T)[sp].[moe](G)[sp].[moe](C)[sp].[moe](A)[sp].d(G)[sp].d(A)[sp].d(G)[sp].d(G)[sp].d(T)[sp].d(G)[sp].d(A)[sp].d(A)[sp].d(G)[sp].[moe](C)[sp].[moe](G)[sp].[moe](A)}$$$$V2.0”, for which, under “HepG2, 0.07 µM”, the target mRNA inhibition is 68% and 62%.

Consider “RNA1{[moe](A)[sp].[moe](C)[sp].[moe](G)[sp].[moe](G)[sp].d(G)[sp].d(C)[sp].d(A)[sp].d(A)[sp].d(C)[sp].d(A)[sp].d(T)[sp].d(A)[sp].d(C)[sp].[moe](C)[sp].[moe](T)[sp].[moe](T)}$$$$V2.0”, for which, under “HepG2, 0.07 µM”, the target mRNA inhibition is 50% and 54%.

On to “RNA1{[moe](G)[sp].[moe](C)[sp].[moe](A)[sp].d(T)[sp].d(A)[sp].d(G)[sp].d(C)[sp].d(A)[sp].d(G)[sp].d(C)[sp].d(A)[sp].d(G)[sp].[moe](G)[sp].[moe](A)[sp].[moe](T)[sp].[moe](G)}$$$$V2.0”, for which the target mRNA inhibition (HepG2, 0.07 µM) was 60% and 53%.

Turning to “RNA1{[moe](G)[sp].[cEt](A)[sp].[cEt](G)[sp].d(A)[sp].d(A)[sp].d(G)[sp].d(T)[sp].d(C)[sp].d(C)[sp].d(A)[sp].d(C)[sp].d(C)[sp].d(A)[sp].[cEt](C)[sp].[cEt](G)[sp].[moe](A)}$$$$V2.0”, the target mRNA inhibition (HepG2, 0.07 µM) was 62% and 54%.

Take “RNA1{[moe](G)[sp].[cEt](A)[sp].d(A)[sp].d(C)[sp].d(T)[sp].d(G)[sp].d(G)[sp].d(A)[sp].d(G)[sp].d(C)[sp].d(C)[sp].d(A)[sp].[cEt](C)[sp].[moe](C)[sp].[cEt](A)[sp].[moe](G)}$$$$V2.0”: under “HepG2, 0.07 µM”, the target mRNA inhibition was 68% and 56%.

For “RNA1{[moe](A)[sp].[cEt](A)[sp].[cEt](A)[sp].d(T)[sp].d(G)[sp].d(G)[sp].d(C)[sp].d(A)[sp].d(C)[sp].d(T)[sp].d(A)[sp].d(G)[sp].d(T)[sp].[cEt](A)[sp].[cEt](A)[sp].[moe](A)}$$$$V2.0”, where the note is “HepG2, 0.07 µM”, the target mRNA inhibition is 51%.

Take “RNA1{[moe](G)[sp].[moe](A)[sp].[moe](A)[sp].[moe](C)[sp].[moe](C)[sp].d(A)[sp].d(C)[sp].d(T)[sp].d(G)[sp].d(A)[sp].d(A)[sp].d(C)[sp].d(A)[sp].d(A)[sp].[moe](A)[sp].[moe](T)[sp].[moe](G)}$$$$V2.0”: the target mRNA inhibition (HepG2, 0.07 µM) is 48% and 27%.

Regarding “RNA1{[moe](A)[sp].[moe](C)[sp].[moe](C)[sp].d(A)[sp].d(A)[sp].d(T)[sp].d(T)[sp].d(T)[sp].d(A)[sp].d(T)[sp].d(G)[sp].d(C)[sp].d(C)[sp].[cEt](T)[sp].[cEt](A)[sp].[cEt](C)}$$$$V2.0”, the target mRNA inhibition (HepG2, 0.07 µM) is 24% and 28%.

In the case of “RNA1{[moe](G)[sp].[moe](A)[sp].d(T)[sp].d(G)[sp].d(A)[sp].d(G)[sp].d(G)[sp].d(C)[sp].d(A)[sp].d(T)[sp].d(A)[sp].[moe](G)[sp].[moe](C)[sp].[moe](A)[sp].[moe](G)[sp].[moe](C)}$$$$V2.0”, the target mRNA inhibition (HepG2, 0.07 µM) is 57% and 33%.

“RNA1{[moe](G)[sp].[moe](T)[sp].[moe](G)[sp].[moe](A)[sp].d(A)[sp].d(G)[sp].d(C)[sp].d(G)[sp].d(A)[sp].d(A)[sp].d(G)[sp].d(T)[sp].d(G)[sp].[moe](C)[sp].[moe](A)[sp].[moe](C)}$$$$V2.0”: the target mRNA inhibition (HepG2, 0.07 µM) is 62% and 71%.
